Test results from patent US8597645B2, “Cancer treatment with endothelin receptor antagonists” (New York University, priority 1999, dated 2013).
Read-outs that look alike come from different tables or passages of the source. Where a SMILES comes first, the peptide text is derived from it.

Assays:
[1] = system: E-cadherin protein levels in melanocytes (FM2030) and melanoma cells (SKMEL28); experiment: Down-regulation of E-cadherin by ET-1, immunoblot analysis of lysates; assay type: cell-based, human; conditions: for blocking of E-cadherin down-regulation by ET-1: antagonist 100 nM added one hour before 10 nM ET-1, 40 hours
Experimental: A375, WM-266-4 and WM-1 15 melanoma cells were purchased from the ATCC. Culture conditions were as described in I. M. Shih, et al., Am. J. Pathol., 145:837-45 (1994). Two weeks prior to ET-stimulation, water soluble 12,13-phorbol dibutyrate was substituted for phorbol 12-myristate, 13-acetate in melanocyte medium. ET stimulations of melanocytes were carried out in phorbol-free medium. Cell pellets were incubated for 15 minutes in 6 pellet volumes of RIPA buffer (1% NP4O, 0.5% deoxycholic acid, 10 mM Tris pH 8.3, 150 mM NaCl, 50 mM NaF, 0.2 mM sodium vanadate, 1× protease inhibitors-Boehringer complete). After centrifugation, lysates were quantitated using protein assay reagent (Biorad). 2.5 ug of protein per sample were subjected to SDS-PAGE unless samples were prepared from A375, WM-266-4 or WM-1 15 cells in which case 100 ug protein per sample was used. BQ123 and BQ788 at 100 nM were added to cells one hour before ET-1 addition. Antibodies: anti-E-cadherin (Transduction labs), anti-mouse IgG-HRP (Santa-Cruz). ECL detection system (Amersham). ET-1, ET-3, BQ123, BQ788 (Peninsula labs).
Human neonatal melanocytes (FM2030) and human melanoma cells (SKMEL28) were stimulated with 10 nM ET-1 over a 40 hour time course and protein lysates were examined for E-cadherin protein levels by immunoblot analysis (FIG. 1A). […] E-cadherin protein levels returned to baseline by 72 hours. A delayed and prolonged response to ET-1 has also been reported in other cell types. R. Marsault, et al., Biochem. Biophys. Res. Commun., 179:1408-3 (1991). […] In addition to E-cadherin, expression of the adhesion molecules ICAM 1, CD44 and N-cadherin is altered during melanoma development. M. Y. Hsu, et al., J. Investig. Dermatol. Symp. Proc., 1:188-94 (1996); S. Vermeulen, et al., Pathol. Res. Pract, 192:694-707 (1996).
There are two well characterized ET-1 receptors, an A subtype (ETA) and a B subtype (ETB). A. G. Baynash, et al., Cell, 79:1277 85 (1994). Both subtypes are expressed by melanocytes while most melanoma cells express only ETB. ET-1 binds with equal affinity to both receptor subtypes. G. Imokawa, et al., Biochem. J., 314:305-12 (1996). To determine which subtype mediated the observed response, the assay was repeated in the presence of a selective ETA antagonist (BQ123) and a selective ETB antagonist (BQ788).

[2] = system: β-catenin and p120CTN protein levels in melanocytes and melanoma cells; experiment: Down-regulation of β-catenin and p120CTN by ET-1, immunoblot of crude membrane fractions; assay type: cell-based, human
Experimental: To analyze membrane-associated catenin proteins, crude membrane fractions were prepared as follows: cell pellets were resuspended in 6 pellet volumes of buffer A (10 mM HEPES pH 7.5, 1.5 mM MgCl2, 10 mM KCl, 10 mM NaF, 0.2 mM sodium vanadate, 1× protease inhibitors-Boehringer complete) and allowed to swell for 10 min. Cell membranes were disrupted by vortexing for 10 s and membranes pelleted by centrifugation for 10 s. Supernatants containing cytoplasmic proteins were discarded. Membrane pellets were solubilized in RIPA buffer as described above and snap frozen on dry ice. 0.5 ug and 2.5 ug of protein lystes were used to examine levels of β-catenin and p120^CTN proteins respectively. Antibodies: anti-β-catenin and anti-p120^CTN (Transduction labs).
The catenins are cytoplasmic proteins that bind E-cadherin and are critical for E-cadherin function in cellular adhesion. J. M. Daniel, et al., Bloessays, 19: 883-91 (1997). Considering the importance of the catenins in E-cadherin function, the effect of ET-1 stimulation upon the levels of these proteins was studied. In both melanocytes and melanoma cells, ET-1 stimulation decreased β-catenin protein levels and increased its electrophoretic mobility (FIG. 2A). The kinetics of this response correlated well with those of E-cadherin down-regulation. BQ788, a selective ETB antagonist, blocked ET-1 mediated down-regulation of β-catenin (FIG. 2B).

[3] = system: melanocytes and melanoma cells; experiment: Immunofluorescence: subcellular localization of E-cadherin and β-catenin after ET-1; assay type: cell-based, human; conditions: 10 nM ET-1, 96 hours
Experimental: Cells were seeded onto collagen coated glass chamber slides in medium supplemented with 10 nM ET-1. At 48 hours, medium was aspirated and replaced with fresh ET-1 supplemented medium. At 96 hours, cells were fixed for 10 minutes in 3.7% formaldehyde/1 mM CaCl2/PBS, permeabilized for 10 minutes in 0.2% Triton X-100/PBS and blocked in 1% BSA/PBS for 10 minutes. Staining with E-cadherin and β-catenin antibodies diluted 1:50 in blocking buffer was performed for 45 minutes followed by a 30 minute incubation with goat-anti-mouse IgG-Cy3 (Jackson Immunoresearch labs) diluted 1:200 in blocking buffer. Cells were washed with PBS in between permeabilization and fixation steps and after antibody incubations.

[4] = system: caspase-8, caspases-3 and 7 in FM2030 and SKMEL28 cells; experiment: Caspase activation by ET-1, immunoblot of crude cytoplasmic extracts; assay type: cell-based, human
Experimental: (§1) All caspase inhibitors contained a 16 amino-acid signal peptide derived from Kaposi Fibroblast Growth Factor to confer cell permeability (Calbiochem). Inhibitors were added to cells 34 hours post ET-1 stimulation and cells harvested at 40 hours. Crude cytoplasmic fractions were prepared as described for FIG. 2, except that supernatants containing cytoplasmic proteins were transferred to new tubes, supplemented with 0.11 volumes of buffer B (0.3M HEPES pH 7.9, 1.4M KCl, 0.03M MgCl2) and clarified by centrifugation. 10 ug of protein per sample was analyzed for caspase activation. Antibodies: Anti-caspase-8 antibody (UBI), Anti-caspase-3 and 7 (Transduction labs). Super Signal West Femto Maximum Sensitivity Substrate (PIERCE) was used for chemiluminescent detection of caspase proteins. Membranes were initially developed in a 1:5 dilution of the reagent made in H2O. If necessary, blots were briefly rinsed in TBS (10 mM Tris pH 8.0, 150 mM NaCl) and redeveloped with undiluted reagent for visualization of small fragments.
To determine whether caspase activation played a role in down-regulation of E-cadherin by ET-1, the assay was repeated in the presence of cell permeable inhibitors of a variety of different caspases (FIG. 3A). Strikingly, inhibitors containing the sequences IETD (inhibition of caspase-8) (SEQ ID NO:1) and DEVD (inhibition of caspases-3, 7, 8) (SEQ ID NO:2) were able to block down-regulation of E-cadherin by ET-1. The ‘DEVD’ (SEQ ID NO:2) inhibitor required a 10 fold higher concentration than the ‘IETD’ (SEQ ID NO:1) inhibitor in order to be effective (FIG. 3A. lower panel). Inhibitors specific for caspases 1, 4, 5, 6, 9 and 10 were without effect. […] Timepoints of maximal E-cadherin down-regulation coincided with the appearance of catalytically active caspase-8 subfragments (FIG. 3C, lower panel). Treatment of cells with a cell permeable inhibitor of caspase-8 prevented its proteolytic processing providing further evidence that caspase-8 activation is required for down-regulation of E-cadherin, β-catenin and p120^CTN by ET-1.

[5] = system: ETA receptors; conditions: cited from earlier work; for IC50: read-out: IC50, inhibition of 125I-labeled ET-1 binding
[6] = system: ETB receptors; conditions: cited from earlier work; for inhibition of 125I-labeled ET-1 binding: non cardiovascular tissues: kidney, adrenal gland, cerebellum
[7] = system: isolated vascular strips; conditions: read-out: EC50 as contractile agent; cited from earlier work
[8] = system: caspases (E-cadherin, β-catenin, p120CTN read-out) in SKMEL28 and FM2030 cells; experiment: Cell permeable caspase inhibitors on down-regulation of E-cadherin and catenins by ET-1; assay type: cell-based, human; conditions: inhibitors added 34 hours post ET-1, harvested at 40 hours
Experimental: as §1
To determine whether caspase activation played a role in down-regulation of E-cadherin by ET-1, the assay was repeated in the presence of cell permeable inhibitors of a variety of different caspases (FIG. 3A). […]

[9] = ET-1 stimulation, melanocytes and melanoma cells

## CC(C)C[C@@H]1NC(=O)[C@@H](C(C)C)NC(=O)[C@@H]2CCCN2C(=O)[C@@H](CC(=O)O)NC(=O)[C@@H](Cc2c[nH]c3ccccc23)NC1=O [BQ123, cyclo(D-Asp-Pro-D-Val-Leu-D-Trp)] (HELM PEPTIDE1{L.[dW].[dD].P.[dV]}$PEPTIDE1,PEPTIDE1,1:R1-5:R2$$$V2.0)
[1]
  blocking of E-cadherin down-regulation by ET-1: not

## CCCC[C@@H](NC(=O)[C@@H](Cc1cn(C(=O)OC)c2ccccc12)NC(=O)[C@H](CC(C)(C)C)NC(=O)N1[C@H](C)CCC[C@@H]1C)C(=O)O [BQ788]
[1]
  blocking of E-cadherin down-regulation by ET-1: blocked
[2]; ETB antagonist with ET-1
  blocking of ET-1 mediated down-regulation of β-catenin: blocked

## ET-1: 21 amino-acid peptide secreted by keratinocytes; binds ETA and ETB
[1]; 10 nM ET-1, by 40 hours, FM2030 and SKMEL28
  E-cadherin protein level after ET-1 stimulation: marked decrease
[1]; 10 nM ET-1, FM2030 and SKMEL28
  time at which E-cadherin protein levels returned to baseline: ≤ 72 h
[1]; 0.5, 1.0, 10 nM ET-1, 40 hours, melanocytes and melanoma cells
  dose response of E-cadherin down-regulation: dose responsive
[1]; immunoblot of lysates after ET-1
  protein levels of adhesion molecules ICAM 1, CD44 and N-cadherin: no effect
[1]; northern blot analysis
  E-cadherin mRNA levels: no ET-1 dependent decrease
[1]; one additional melanocyte line (CL-NHEM) and 4 additional melanoma lines
  down-regulation of E-cadherin in additional cell lines: down-regulation of E-cadherin was observed in all lines except in A375 and WM 115
[2]; ET-1 stimulation
  p120CTN protein level and electrophoretic mobility: down-regulated and increased the electrophoretic mobility
[2]; [9]
  β-catenin electrophoretic mobility: increased
  β-catenin protein levels: decreased
[2]; northern blot analysis
  β-catenin mRNA levels: failed to reveal an ET-1 dependent decrease
[3]
  E-cadherin staining in melanocytes: loss of concentration of E-cadherin staining at points of cell:cell contact
  E-cadherin staining in melanoma cells: markedly decreased intensity of membranous staining
  β-catenin staining in melanocytes: loss of concentration of β-catenin at lateral cell borders and at points of cell: cell contact
  β-catenin staining in melanoma cells: loss of most of the membranous staining
[3]; bright field micrographs
  melanocyte morphology: large nuclei with prominent nucleoli, abundant cytoplasm, polygonal morphology
[4]; SKMEL28 and FM2030 cells
  activation of distal caspases (caspases-3 and 7): failure of ET-1 to activate distal caspases
[4]; after ET-1 stimulation
  duration of ET-1 dependent proteolytic processing of caspase-8: 46 h
  time at which ET-1 dependent proteolytic processing of caspase-8 was first detectable: approximately 36 hours
[4]; melanocytes and melanoma cells
  induction of apoptosis: failure to induce apoptosis
[5]; cardiovascular tissues
  potency of inhibition of 125I-labeled ET-1 binding relative to ET-3: forty to seven hundred times more potently
[6]
  inhibition of 125I-labeled ET-1 binding: inhibited to the same extent
[7]
  EC50: 0.0004 µM

## ET-3: ET isopeptide, a selective ETB agonist
[1]; 10 nM ET-3, 40 hours
  down-regulation of E-cadherin by ET-3: potent down-regulator
[6]
  inhibition of 125I-labeled ET-1 binding: inhibited to the same extent

## IETD
[8]
  blocking of down-regulation of E-cadherin by ET-1: able to block

## cyclo(D-Glu-L-Ala-allo-D-Ile-L-Leu-D-Trp) [BE-18257B]
[5]; aortic smooth muscle
  IC50: 1.4 µM
[5]; cultured aortic smooth muscle cells
  IC50: 0.5 µM
[5]; ventricle membranes
  IC50: 0.8 µM
[6]; tissues in which ETB receptors predominate, read-out: concentration up to which binding is not inhibited
  IC50: > 100 µM
